These results are taken from patent publication US12263146B2, “Non-linear dosing of mirdametinib” (SpringWorks Therapeutics Inc., priority 2022, dated 2025).

The test system of the data set is patients ≥2 and <25 years with brain cancer. In words: Phase I/II trial of single agent mirdametinib in children, adolescents and young adults with brain cancer. The class given is in vivo, human. How it is done: Example 1: Phase I/II Evaluation of Single Agent Mirdametinib, a Brain-Penetrant MEK1/2 Inhibitor, for the Treatment of Children, Adolescents, and Young Adults with Brain Cancer A multi-arm […] trial of mirdametinib is to be conducted in patients ≥2 and <25 years with brain cancer. Phase I requires participants have no prior exposure to MEK inhibitors and recurrent/progressive disease with biopsy-proven evidence of MAPK pathway activation. Three escalating dose levels (2 mg/m^2/dose BID, 2.5 mg/m^2/dose BID and 3 mg/m^2/dose BID) are planned using a rolling 6 design. The median age enrolled in the study is 10 years old (3-21).

On to `O=C(NOC[C@H](O)CO)c1ccc(F)c(F)c1Nc1ccc(I)cc1F` (single isomer, unassigned) [mirdametinib], for which the “MEK related retinopathy or cardiopathy” value (2, 2.5 and 3 mg/m^2/dose BID, patients with brain cancer) was “No MEK related retinopathy or cardiopathy is observed”. Further, where the note is “2, 2.5 and 3 mg/m^2/dose BID, patients with recurrent/progressive brain cancer with MAPK pathway activation”, the disease progressions result is recorded as “No disease progressions”. Besides, the dose-limiting toxicities result (all three dose levels (2, 2.5 and 3 mg/m^2/dose BID), patients with brain cancer, no prior MEK inhibitor) is on record as “No dose-limiting toxicities”. In addition, the “clinical activity (overall statement)” value (dosed continuously in patients with brain cancer) was “clinically promising”.
